According to US10125095B2, “Abscisic acid derivative” (NATIONAL UNIVERSITY CORPORATION SHIZUOKA UNIVERSITY, priority 2014, dated 2018):

Columns and labels:
[1] = test system: seeds of thale cress (Arabidopsis thaliana, Col-0); assay: Thale cress seed germination test; type: in vivo
Protocol: Seeds of thale cress (Arabidopsis thaliana, Col-0) were immersed in 500 μL of an aqueous solution of 70% ethanol for 30 minutes, subsequently in 500 μL of a 100% ethanol solution for 1 minute, washed five times in 1 mL of distilled water, then immersed in distilled water and, in a dark place, vernalized at 4° C. for 3 days. A solution of the sample in methanol was put in a 1.5 mL-microtube, and methanol was removed therefrom under reduced pressure. An aqueous solution of 0.5% agar (containing ½ MS medium inorganic salts) at 70° C. was added thereto and stirred, and subsequently the obtained mixture was placed in a 96-well plate to prepare the medium containing the sample. All samples were prepared so as to have a concentration of 3 μM of the compound in Examples 1 to 9 and Comparative Example 1. Further, when ABA is applied, the ABA concentration was adjusted to 0.3 μM. 20 to 30 vernalized seeds of thale cress were planted in each well and cultured at 22° C. under continuous light to monitor the number of seeds germinated over time. The germination rate was calculated by the following formula (1). Note that those cultured in medium prepared using methanol in the same manner were used as controls. […] Germination rate (%)=Number of seeds germinated/Number of seeds planted×100 (1)
The same test was carried out as in Test Example 1 with the concentrations of the compound of Example 1 for treatment varying from 0.3 μM to 30 μM.
Similarly, the same test was carried out with the concentrations of the compound of Example 2 for treatment varying from 0.3 μM to 30 μM.
The same test was carried out as in Test Example 2 with the concentrations of the compounds for treatment varying from 0.3 μM to 3 μM to compare the recovery effects on seed germination rate of the compound of Example 1 and the compound of Comparative Example 1.

PYR1 = molecular target: T1, PYR1 (Arabidopsis thaliana, UniProt O49686); assay: Protein dephosphorylation enzyme activity test, PYR1; type: biochemical, thale cress; settings: control = 100%
T1 construct: 6xHis (N); made in house; host or cells: Escherichia coli BL21-codonplus(DE3)-RIPL (PYL); BL21(DE3)pLysS (HAB1)
T1 sequence (O49686 1-191): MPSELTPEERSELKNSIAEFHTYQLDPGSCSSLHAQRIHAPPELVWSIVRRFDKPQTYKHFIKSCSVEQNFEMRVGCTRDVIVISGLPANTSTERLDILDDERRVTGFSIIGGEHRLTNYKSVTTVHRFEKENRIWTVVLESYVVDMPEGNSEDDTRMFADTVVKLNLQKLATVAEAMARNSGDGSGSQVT
Protocol: (§1) A plasmid (pGex-2T-GST-HAB1 or pET28-6×His-PYL) encoded with PYR/PYL/RCAR proteins (PYL, abscisic acid receptor) or protein dephosphorylation enzyme HAB1 of thale cress was transformed to Escherichia coli (HAB1:BL21(DE3)pLysS, PYL:BL21-codonplus(DE3)-RIPL). Isopropyl-β-thiogalactopyranoside was added to the culture broth, which had been subjected to pre-culture (30° C., 180 rpm, 15 hours) and main culture (30° C., 180 rpm, 4 hours), and the protein-expressed (16° C., 150 rpm, 18 hours) crude enzyme solution was purified using FPLC thereby preparing the recombined PYL (PYR1, PYL1-6, PYL8-10) and HAB1. β-Mercaptoethanol, a manganese chloride aqueous solution, HAB1, PYL, a solution of the sample in dimethylsulfoxide and ultrapure water were sequentially added to a 96-well plate, allowed to stand at 22° C. for 30 minutes. Subsequently p-nitrophenylphosphate, which is the artificial substrate of HAB1, was added thereto to start the reaction, and the plate was placed in a microplate reader (TECAN, Infinite™ N200 NanoQuant). The absorbance at 405 nm due to p-nitrophenol, which is the hydrolysate of p-nitrophenylphosphate, was measured 3 minutes later from the reaction initiation, and HAB1 activity was calculated by the following formula (2). Note that the fraction to which only dimethylsulfoxide was added was considered to be the control and the activity thereof was defined as 100%. […] HAB1 specific activity (%)=Absorbance when sample was added/Absorbance of control×100 (2)

PYL2 = molecular target: T2, PYL2 (Arabidopsis thaliana, UniProt O80992); assay: Protein dephosphorylation enzyme activity test, PYL2; type: biochemical, thale cress; settings: control = 100%
T2 construct: 6xHis (N); made in house; host or cells: Escherichia coli BL21-codonplus(DE3)-RIPL (PYL); BL21(DE3)pLysS (HAB1)
T2 sequence (O80992 1-190): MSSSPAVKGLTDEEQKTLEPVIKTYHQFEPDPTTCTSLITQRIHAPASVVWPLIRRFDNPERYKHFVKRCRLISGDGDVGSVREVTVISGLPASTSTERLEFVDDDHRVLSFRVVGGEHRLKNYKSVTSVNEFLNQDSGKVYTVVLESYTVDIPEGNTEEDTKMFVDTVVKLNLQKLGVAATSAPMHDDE
Protocol: as §1

PYL3 = molecular target: T3, PYL3 (Arabidopsis thaliana, UniProt Q9SSM7); assay: Protein dephosphorylation enzyme activity test, PYL3; type: biochemical, thale cress; settings: control = 100%
T3 construct: 6xHis (N); made in house; host or cells: Escherichia coli BL21-codonplus(DE3)-RIPL (PYL); BL21(DE3)pLysS (HAB1)
T3 sequence (Q9SSM7 1-209): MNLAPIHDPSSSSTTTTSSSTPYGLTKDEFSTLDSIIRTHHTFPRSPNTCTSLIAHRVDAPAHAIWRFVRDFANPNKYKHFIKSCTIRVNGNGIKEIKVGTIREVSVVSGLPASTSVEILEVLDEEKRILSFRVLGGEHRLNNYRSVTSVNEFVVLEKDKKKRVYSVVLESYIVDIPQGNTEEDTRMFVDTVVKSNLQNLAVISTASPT
Protocol: as §1

[2] = 3 μM compound co-applied with 0.3 μM ABA

HAB1 Specific activity (%) PYR1 (PYR1; sample alone) [%]	HAB1 Specific activity (%) PYL2 (PYL2; sample alone) [%]	HAB1 Specific activity (%) PYL3 (PYL3; sample alone) [%]	HAB1 Specific activity (%) PYR1 (PYR1; ABA + compound) [%]	HAB1 Specific activity (%) PYL2 (PYL2; ABA + compound) [%]	HAB1 Specific activity (%) PYL3 (PYL3; ABA + compound) [%]	SMILES	Germination rate (%) 24 Hours later ([1]; ABA alone, 0.3 μM) [%]	Germination rate (%) 36 Hours later ([1]; ABA alone, 0.3 μM) [%]	Germination rate (%) 48 Hours later ([1]; ABA alone, 0.3 μM) [%]	Germination rate (%) 60 Hours later ([1]; ABA alone, 0.3 μM) [%]	Germination rate (%) 24 Hours later [1, 2] [%]	Germination rate (%) 36 Hours later [1, 2] [%]	Germination rate (%) 48 Hours later [1, 2] [%]	Germination rate (%) 60 Hours later [1, 2] [%]	Recovery of seed germination rate decreased by ABA ([1]; compound 0.3 μM to 30 μM co-applied with ABA)	Germination rate (%) 24 Hours later ([1]; compound alone, 3 μM) [%]	Germination rate (%) 36 Hours later ([1]; compound alone, 3 μM) [%]	Germination rate (%) 48 Hours later ([1]; compound alone, 3 μM) [%]	Germination rate (%) 60 Hours later ([1]; compound alone, 3 μM) [%]	Recovery effect on seed germination rate, comparison ([1]; compounds 0.3 μM to 3 μM, co-applied with ABA)
99.6	96.6	88.6	49	84.8	49.2	CC1=C[C@@H](OCC#Cc2ccccc2)CC(C)(C)[C@@]1(O)/C=C/C(C)=C\C(=O)O [Example 1, (2Z,4E)-5-((1S,4S)-1-hydroxy-2,6,6-trimethyl-4-((3-phenylprop-2-yn-1-yl)oxy)cyclohex-2-en-1-yl)-3-methylpenta-2,4-dienoic acid]	–	–	–	–	0	79	100	100	seed germination rates decreased by ABA are recovered	0	86	100	100	excels in the recovery effect on seed germination rate more than the compound of Comparative Example 1
95.7	133	121	62.6	113	61	CC1=C[C@@H](OCC#Cc2ccc(C)cc2)CC(C)(C)[C@@]1(O)/C=C/C(C)=C\C(=O)O [Example 7]	–	–	–	–	0	76	100	100	–	0	86	100	100	–

SMILES	HAB1 Specific activity (%) PYR1 (PYR1; sample alone) [%]	HAB1 Specific activity (%) PYL2 (PYL2; sample alone) [%]	HAB1 Specific activity (%) PYL3 (PYL3; sample alone) [%]	HAB1 Specific activity (%) PYR1 (PYR1; ABA + compound) [%]	HAB1 Specific activity (%) PYL2 (PYL2; ABA + compound) [%]	HAB1 Specific activity (%) PYL3 (PYL3; ABA + compound) [%]	Germination rate (%) 24 Hours later ([1]; ABA alone, 0.3 μM) [%]	Germination rate (%) 36 Hours later ([1]; ABA alone, 0.3 μM) [%]	Germination rate (%) 48 Hours later ([1]; ABA alone, 0.3 μM) [%]	Germination rate (%) 60 Hours later ([1]; ABA alone, 0.3 μM) [%]	Germination rate (%) 24 Hours later [1, 2] [%]	Germination rate (%) 36 Hours later [1, 2] [%]	Germination rate (%) 48 Hours later [1, 2] [%]	Germination rate (%) 60 Hours later [1, 2] [%]	Recovery of seed germination rate decreased by ABA ([1]; compound 0.3 μM to 30 μM co-applied with ABA)	Germination rate (%) 24 Hours later ([1]; compound alone, 3 μM) [%]	Germination rate (%) 36 Hours later ([1]; compound alone, 3 μM) [%]	Germination rate (%) 48 Hours later ([1]; compound alone, 3 μM) [%]	Germination rate (%) 60 Hours later ([1]; compound alone, 3 μM) [%]	Recovery effect on seed germination rate, comparison ([1]; compounds 0.3 μM to 3 μM, co-applied with ABA)
CC1=CC(=O)CC(C)(C)[C@@]1(O)/C=C/C(C)=C\C(=O)O [ABA, abscisic acid]	18.6	13.1	16.8	–	–	–	0	0	16.2	32.6	–	–	–	–	–	–	–	–	–	–
